“And” between values parts separate entries of the source, which are not always exact repeats. Identical values can stand only once. Counter-ions that a name gives are not always drawn. Marks after values point to notes of the source that are not given here.
Key:
[1] = test system: rat model of post-operative pain; assay: Rat model of post-operative pain (plantar incision), tactile allodynia by electronic von Frey; format: in vivo, Wistar rats; conditions: for Tactile Pressure (g) Post-treatment 15min. / Tactile Pressure (g) Post-treatment 30min. / Tactile Pressure (g) Post-treatment 60min. / Tactile Pressure (g) Post-treatment 120 min.: 24 hours after surgery, single readings at 4 points per rat; for Tactile Pressure (g) Post-treatment 15min. Ave. / Tactile Pressure (g) Post-treatment 30min. Ave. / Tactile Pressure (g) Post-treatment 60min. Ave. / Tactile Pressure (g) Post-treatment 120 min. Ave.: average of 4 points; for Tactile Pressure (g) Post-treatment 15min. Mean / Tactile Pressure (g) Post-treatment 30min. Mean / Tactile Pressure (g) Post-treatment 60min. Mean / Tactile Pressure (g) Post-treatment 120 min. Mean: group mean of 5 rats; for Δ Treatment 15min. / Δ Treatment 30min. / Δ Treatment 60min. / Δ Treatment 120 min.: (Post-Treatment) - (Pre-Treatment)
Method: Lofexidine at 0.00032 and 0.0032 mg/rat injected intrathecally (ITH) was evaluated for possible analgesic activity in a rat model of post-operative pain which was induced with an incision made on the plantar surface of the hind paw. To measure tactile allodynia, a supertip with a flattened surface connected to Electrovonfrey Aesthethiometer (IITC, USA) was applied slowly and gently onto the plantar surface of the hind paw, where 4 points around the incision were identified. The endpoint is the mean withdrawal threshold values (gm) in response to von Frey filament, serving as a measure of analgesic activity. Percent inhibition was calculated as Δ treatment values (change in threshold pressure caused by treatment) relative to Δ blank values (change in threshold value caused by incision). Lofexidine.HCl was dissolved in 0.9% NaCl and at doses of 0.00032 and 0.0032 mg/rat was administered intrathecally (ITH). The dosing volume was 10 µl/rat. Male Wistar derived rats weighing 270 ± 30 g provided by BioLasco Taiwan (under Charles River Laboratories Technology licensee) were used. Space allocation for animals was 45 x 23 x 15 cm for 6 rats. Animals were housed in APEC^R cages. All animals were maintained in a controlled temperature (22-24°C) and humidity (60%-80%) environment with 12 hours light dark cycles for at least one week in MDS Pharma Services-Taiwan Laboratory prior to use. Free access to standard lab chow (Lab Diet, Rodent Diet, PMI Nutrition International, USA) and tap water was granted. All aspects of this work including housing, experimentation and disposal of animals were performed in general accordance with the Guide for the Care and Use of Laboratory Animals (National Academy Press, Washington, D. C, 1996). Groups of 5 male Wistar rats weighing 270 ± 30 g were used. Prior to surgery, individual animals were acclimatised to the testing environment and baseline responses to Electronic Von Frey Aesthesiometer (2290CE Electrovonfrey®, IITC, USA) with a rigid tip were performed (Pre-Incision). Under pentobarbital (50 mg/kg, 5 ml/kg, i.p.) anesthesia, the left hind paw was aseptically prepared. A 1-cm longitudinal incision was made with a number 11 blade, through the skin and fascia of the plantar aspect of the foot, starting 0.5 cm from the proximal edge of the heel and extending toward the toes. The plantaris muscle was elevated and incised longitudinally, followed by crushing with a mosquito hemostat for 20 seconds. The muscle origin and insertion remained intact After hemostasis with gentle pressure, the skin and fascia were then closed as one layer using 4-0 silk suture. Evaluation for pain was performed at 24 hours postoperatively between 08:00 and 16:00h. Each animal was monitored at 15, 30, 60 and 120 minutes after intrathecal administration of lofexidine.HCl. The rats were placed under inverted plexiglas cages on a wire mesh rack and a brief observation of general behavior post-injection was made. The rigid tip part of the Electronic Von Frey Aesthesiometer was applied perpendicularly from underneath the mesh floor to the four points around the wound surface of the animal with slow upward force against the paw. A positive response to tactile pressure was recorded if the paw was sharply withdrawn; ambulation was considered an ambiguous response, and in such cases, the stimulus was reapplied. Mean values from 4 points for each rat and from 5 rats in each group were calculated. Percent inhibition due to treatment relative to pre-treatment pain response was calculated according to the formula: Tactile Pressure [(Post-Treatment) - (Pre-Treatment)]/[(Pre-Incision) - (Pre-Treatment)] x 100%. Inhibition by 50% or more (≥50%) is considered significant analgesic effect. Unpaired Student's t test is applied for comparison of the % inhibition values between test substance-and vehicle-treated groups. Significance is considered at P<0.05 level

[2] = systemically (e.g. orally or by intravenous injection), especially at high doses (e.g. >600 µg per day); cited from earlier work
[3] = 0.00032 mg/rat ITH, individual rat
[4] = 0.00032 mg/rat ITH, group, Δ Treatment/Δ Blank x 100%
[5] = 0.00032 mg/rat ITH, group, Δ Blank 30.2
[6] = 0.0032 mg/rat ITH, individual rat
[7] = 0.0032 mg/rat ITH, group, Δ Treatment/Δ Blank x 100%, ≥50% considered significant
[8] = 0.0032 mg/rat ITH, group, Δ Blank 32.9

Compound: CC(Oc1c(Cl)cccc1Cl)C1=NCCN1 (stereo not drawn) [Lofexidine HCl]
- analgesic effect ([1]; 0.00032 mg/rat ITH): slight analgesic effect
- Tactile Pressure (g) Post-treatment 15min. ([1]; 0.00032 mg/rat ITH): 26.6 g and 26.9 g and 28.6 g and 23.1 g (2×) and 21.6 g and 17.6 g and 23.3 g and 15.5 g and 18.4 g and 21.1 g and 19.3 g and 23.6 g and 20.5 g and 24.6 g and 20.1 g and 17.9 g and 19.2 g and 14.4 g and 20.6 g
- Tactile Pressure (g) Post-treatment 30min. ([1]; 0.00032 mg/rat ITH): 25.9 g and 23.6 g and 32.5 g and 18.6 g and 25.7 g and 28.4 g and 26.0 g and 20.6 g and 22.3 g and 20.4 g and 17.3 g and 24.6 g and 21.6 g and 22.5 g and 24.4 g and 24.3 g and 20.0 g and 19.4 g and 18.2 g and 19.2 g
- Tactile Pressure (g) Post-treatment 60min. ([1]; 0.00032 mg/rat ITH): 23.3 g and 27.3 g and 23.6 g and 26.6 g and 22.9 g and 19.7 g (2×) and 24.4 g and 19.2 g and 19.9 g and 20.3 g and 22.6 g and 18.4 g and 25.1 g and 21.2 g and 22.0 g and 16.2 g and 21.1 g and 20.5 g and 21.6 g
- Tactile Pressure (g) Post-treatment 120 min. ([1]; 0.00032 mg/rat ITH): 20.6 g (3×) and 21.0 g (2×) and 17.2 g and 19.9 g (2×) and 24.3 g and 21.2 g and 18.9 g and 21.6 g and 22.0 g and 18.0 g and 20.3 g and 22.4 g (2×) and 23.9 g and 18.6 g and 16.8 g
- Tactile Pressure (g) Post-treatment 15min. Ave. [1, 3]: 26.3 g and 21.4 g and 18.6 g and 22.2 g and 18.0 g
- Tactile Pressure (g) Post-treatment 30min. Ave. [1, 3]: 25.2 g (2×) and 21.2 g and 23.2 g and 19.2 g
- Tactile Pressure (g) Post-treatment 60min. Ave. [1, 3]: 25.2 g and 21.6 g and 20.3 g and 22.0 g and 19.9 g
- Tactile Pressure (g) Post-treatment 120 min. Ave. [1, 3]: 19.7 g and 21.4 g and 21.2 g (2×) and 19.4 g
- Tactile Pressure (g) Post-treatment 15min. Mean ([1]; 0.00032 mg/rat ITH): 21.3 g
- Tactile Pressure (g) Post-treatment 30min. Mean ([1]; 0.00032 mg/rat ITH): 22.8* g
- Tactile Pressure (g) Post-treatment 60min. Mean ([1]; 0.00032 mg/rat ITH): 21.8 g
- Tactile Pressure (g) Post-treatment 120 min. Mean ([1]; 0.00032 mg/rat ITH): 20.6 g
- %Inh 15min. [1, 4]: 2.6%
- %Inh 30min. [1, 4]: 7.6%
- %Inh 60min. [1, 4]: 4.3%
- %Inh 120 min. [1, 4]: 0.3%
- Δ Treatment 15min. [1, 5]: 0.8 g
- Δ Treatment 30min. [1, 5]: 2.3 g
- Δ Treatment 60min. [1, 5]: 1.3 g
- Δ Treatment 120 min. [1, 5]: 0.1 g
- %Inh 15min. [1, 3]: 14.9% and 2.5% and -5.6% and 8.0% and -7.4%
- %Inh 30min. [1, 3]: 11.1% and 12.8% and 4.1% and 11.4% and -3.2%
- %Inh 60min. [1, 3]: 11.1% and 3.0% and 0.8% and 7.4% and -0.7%
- %Inh 120 min. [1, 3]: -7.4% and 2.5% and 4.1% and 4.7% and -2.5%
- Tactile Pressure (g) Post-treatment 15min. ([1]; 0.0032 mg/rat ITH): 48.4 g and 47.2 g and 55.3 g and 30.4 g and 23.5 g and 48.7 g and 43.0 g and 36.2 g and 32.4 g and 33.8 g and 21.4 g and 31.9 g and 37.7 g and 42.5 g (2×) and 34.5 g and 30.5 g and 40.7 g and 60.0 g and 40.6 g
- Tactile Pressure (g) Post-treatment 30min. ([1]; 0.0032 mg/rat ITH): 36.4 g and 34.8 g and 44.1 g and 39.3 g and 34.1 g and 44.0 g and 38.1 g and 36.5 g and 36.8 g and 28.8 g and 30.3 g and 33.2 g and 34.5 g and 40.1 g and 37.2 g and 26.8 g and 27.7 g and 44.2 g and 54.3 g and 50.8 g
- Tactile Pressure (g) Post-treatment 60min. ([1]; 0.0032 mg/rat ITH): 33.6 g and 35.6 g and 35.5 g and 36.7 g and 29.0 g and 28.5 g and 40.6 g and 31.8 g and 16.1 g and 16.5 g and 21.8 g and 16.6 g and 24.3 g and 26.8 g and 21.3 g and 21.1 g and 31.3 g and 41.3 g and 32.5 g and 49.5 g
- Tactile Pressure (g) Post-treatment 120 min. ([1]; 0.0032 mg/rat ITH): 29.3 g and 21.6 g (2×) and 20.4 g and 19.2 g and 22.9 g and 22.1 g and 21.4 g and 14.5 g and 21.5 g and 17.6 g and 18.8 g and 16.2 g and 22.6 g and 24.7 g and 18.6 g and 31.1 g and 28.6 g and 27.9 g and 28.7 g
- Tactile Pressure (g) Post-treatment 15min. Ave. [1, 6]: 45.3 g and 37.9 g and 29.9 g and 36.3 g and 46.0 g
- Tactile Pressure (g) Post-treatment 30min. Ave. [1, 6]: 38.7 g and 38.2 g and 32.3 g and 34.7 g and 44.3 g
- Tactile Pressure (g) Post-treatment 60min. Ave. [1, 6]: 35.4 g and 32.5 g and 17.8 g and 23.4 g and 38.7 g
- Tactile Pressure (g) Post-treatment 120 min. Ave. [1, 6]: 22.6 g and 22.0 g and 18.1 g and 20.5 g and 29.1 g
- Tactile Pressure (g) Post-treatment 15min. Mean ([1]; 0.0032 mg/rat ITH): 39.1* g
- Tactile Pressure (g) Post-treatment 30min. Mean ([1]; 0.0032 mg/rat ITH): 37.6* g
- Tactile Pressure (g) Post-treatment 60min. Mean ([1]; 0.0032 mg/rat ITH): 29.6 g
- Tactile Pressure (g) Post-treatment 120 min. Mean ([1]; 0.0032 mg/rat ITH): 22.5 g
- %Inh. 15 min. [1, 7]: (55.9) %
- %Inh. 30min. [1, 7]: (51.4) %
- %Inh. 60min. [1, 7]: 27.1%
- %Inh. 120 min. [1, 7]: 5.5%
- Δ Treatment 15min. [1, 8]: 18.4 g
- Δ Treatment 30min. [1, 8]: 16.9 g
- Δ Treatment 60min. [1, 8]: 8.9 g
- Δ Treatment 120 min. [1, 8]: 1.8 g
- %Inh 15min. [1, 6]: 67.7% and 46.2% and 39.2% and 41.8% and 84.2%
- %Inh 30min. [1, 6]: 48.4% and 47.0% and 47.7% and 36.7% and 78.8%
- %Inh 60min. [1, 6]: 38.7% and 32.5% and -3.5% and 0.9% and 60.8%
- %Inh 120 min. [1, 6]: 1.2% and 5.8% and -2.5% and -8.2% and 29.9%
- analgesic effect against post-operative pain ([1]; 0.0032 mg/rat intrathecal, at 15 and 30 minute time points, compared with Δ blank values): demonstrated analgesic effect
- common symptoms associated with use [2]: drowsiness, sedation and blood pressure and heart rate increases
